Like-named read-outs stand apart in the source and are kept apart here.
What was measured:
human EDG-4 = human EDG-4 (Homo sapiens, UniProt O95136); test: SRE luciferase reporter in 293-EBNA cells, human EDG-4; type: cell-based; conditions: for EC50: 293-EBNA expressing human EDG-4, luciferase after 6 hr, pcDNA3 response subtracted; for Agonist character at EDG-4: conclusion from the reporter assay of Table 2; for Rank (EMax): rank of efficacy among compounds tested
Procedure: NE-κB activates gene expression by binding to specific DNA sequences found in the promoters of genes regulated by this inflammation-related transcription factor. […] The SRE reporter was identical to the NF-κB reporter, except that the NF-κB binding sites were replaced with 2 SRE sites. The new reporter was called 2XSREtk-p4Luc-zeo.
The protocol described in Example 11 for Assay 1 was followed except for the following changes:
2) SRE Cotransfection: 0.5 μg of 2XSREtk-p4Luc-zeo reporter DNA and 3.5 μg pcDNA3, EDG-1, EDG-3 (pC3-hE3HP2, different from the clone used in Assay 2 of Example 11) or the newly cloned human EDG-4 (pC3-hedg4#36); NF-κB Cotransfection: 2 μg 6XNFκBtk-p4Luc-zeo reporter DNA and 2.0 μg pcDNA3, EDG-1, EDG-3 (pC3-hE3HP2), or EDG-4 (pC3-hedg4#36). Expression plasmid and reporter plasmid DNA samples were combined and diluted in 750 μl of DMEM/F12 (serum free media) and 20 μl Plus Reagent (Lipofectamine Plus Kit, Life Technologies Cat. 10964-013), and incubated at room temperature for 15 min.
1) Media was removed and cells treated with compounds diluted in DMEM/F12 media.
2) The cells were treated for 6 hours.
3) Luciferase assay was performed.
Transfection was accomplished using the Lipofectamine Plus kit (Life Technologies, Cat. 10964-013), using the manufacturer's recommended conditions.
(§1) Transfection of EDG-4, expression, pretreatment and treatment of 293-EBNA cells expressing recombinant human EDG-4 was carried out essentially as described in “Example 11. […] Results were tabulated in Microsoft Excel, and analyzed with GraphPad Prism software. […] The luciferase response was expressed as fold response, after subtracting any endogenous response in pcDNA3-transfected cells at a given concentration of compound.

[1] = tested on: 293-EBNA cells expressing recombinant human EDG-4; test: Cytotoxicity seen in the EDG-4 agonist reporter assay (293-EBNA cells); type: cell-based
Procedure: as §1

[2] = tested on: Human Umbilical Vein Endothelial Cells (HUVEC); test: IL-8 ELISA on primary cultured HUVEC treated with lysolipids; type: cell-based; conditions: 6 hr treatment
Procedure: Plating, Pretreatment and Treatment of HUVEC
Procedures were followed as detailed above in “Procedure #1 for HeLa Cells” with the following exceptions:
Cells were plated at 20,000 cells/well into 24-well plates. The next day, cells were serum-starved overnight in EBM medium (Clonetics) with 0.5% FBS, and then treated in EBM without FBS for 6 hr with the following lysolipids:
Supematants were collected and IL-8 levels were deternined using ELISA as described previously.

HeLa cells [3] = test: IL-8 ELISA on supernatants of treated HeLa cells; type: cell-based, human; conditions: for Inhibition of IL-8 response to S1P by antioxidants: NDGA 10 or 40 μM, NAC 30 mM
Procedure: Procedure #1 For HeLa Cells
Cells: HeLa (adenocarcinoma, human)
Media: DMEM/F12+10%FBS adherent
1) Cells were seeded at 0.2×10^6 cells/well in 6-well plates.
2) 1.5 ml 0.5% FBS media was added to each well.
1) Made up all required solutions in 0.5% FBS media (control). Handling of […] for use in NF-κB experiments requires that sonication, commonly used to resuspend LPA, not be done; NF-κB may be activated by lipid peroxides created through vigorous frothing.
3) 1.5 ml appropriate treatments were added to each well.
5) After the specified time cell supernatants were collected into 1.5 ml eppendorf tubes, spun down at 14000 rpm for 5 minutes and stored at −20° C. for later ELISA determination.
D. Detection of Interleukin-8 (IL-8) using an IL-8 ELISA (Enzyme-Linked InimunoSorbent Assay).
1) The Quantikine Human IL-8 ImmunoAssay Kit was obtained from R&D Systems (Cat. D8050).
4) The assay procedure was followed as recommended in the kit for cell culture supernatant samples.
5) ELISA was performed on 50 μl samples of culture supernatant and duplicate samples were measured for each well. Each treatment was performed on triplicate wells.
6) Plates were read on UVmax kinetic microplate reader (Molecular Devices), set to 450 nm and correction set to 575 nm, using Wsoftmax software version 2.34.
Procedure #2 For HeLa Cells
1) Cells were seeded at 2.5×10^4 cells/well in 24-well plates.
2) 0.5 ml 0.5% FBS media was added to all wells not requiring PTX pre-treatment.
3) For wells requiring PTX; 0.5 ml 0.5% FBS media containing 50 ng/ml PTX (1 volume PTX (RBI Cat. P140): 1 volume DTT, incubate 37° C. for 30 minutes then dilute to 50 ng/ml) was added.
Follow Procedure #2 For HeLa Cells with the following exceptions:
Concentrations for LPC, LPE, LPG, LPS, sphingosine and SM used were 10, 50, 100, 1000, and 5000 nM. Concentrations for LPI, lyso-PAF and lysosulfatide used were 0.3 and 3 μM.
2) A 30 minute pre-treatment at 37° C./5%CO2 of 0.5 ml of suramin was done to all wells except control, any PTX and ET-18-OCH3 wells before step 3 of section C.

HeLa cells [4] = test: Cytotoxicity (viable cell count) in HeLa cells; type: cell-based, human; conditions: 40 μM
Text: Follow Procedure #2 For HeLa Cells with the following exceptions: […]

rat edg4 = rat edg4 (Rattus norvegicus, UniProt P47752); test: NF-κB-tk-p4Luc luciferase reporter in 293-EBNA cells, rat EDG-4; type: cell-based; design: expressed in transfected cells; host or cells: 293-EBNA; conditions: pC3-redg4, Assay #1, 24 hrs
Procedure: Monolayer Transient Transfection Protocol for 293-EBNA
1) 150 mm plates of 293-EBNA obtained from Invitrogen (Cat. R620-07) with a confluency of ˜80% were used for transfection.
2) 6.6 μg NF-κB-tk-p4Luc reporter DNA and 6.6 μg of pC3-redg4 (expressing rat EDG-4), or pcDNA3 DNA was diluted in 500 μl OPTI-MEM (Gibco; Cat. 31985-062)
3) 96.8 μl Lipofectamine (Gibco; Cat. 18324-020) was diluted in 500 μl of OPTI-MEM.
6) 6 ml OPTI-MEM was added to each transfection tube and this was added to a plate of 293-EBNA cells. The plates were left for 4 hrs at 37° C. in a 5% CO2 incubator.
2) 0.02×10^6 cells were plated per well of a 96-well Blackview plate coated with polyD-lysine. No cells were plated in the outside wells of the 96well plate. Two 96-well plates were seeded for each transfection.
1) Cells were washed with PBS and 140 μl serum-free media (SFM) added to each well. Plates were incubated in 37° C. incubator for 6 hrs.
2) After 6 hrs, media was removed and cells treated with compounds diluted in 0.5% FBS media (140 μl added to each well).
3) Cells were treated for 24 hrs.
1) Luclite kit (Packard; Cat. 6016911) was used for luciferase assay. All reagents were brought to room temperature before use.
3) 50 μl 0.5M HEPES pH 7.8 buffer (1 mM MgCl2, 1 mM CaCl2) was added to all wells of 96-well plate. Black adhesive backing (Polyfitronics) was aligned to the bottom of the viewplate.
4) Luclite substrate was made up by adding 10 ml substrate diluent to 1 vial lyophilized substrate. Reconstituted substrate was kept under a dark container. 50 μl substrate was added to each well.
7) After incubation, plates were counted in a 12-detector Packard Top Count on a program without dark delay.
Transient Transfection Protocol for 293-EBNA
The above protocol for assay 1 was followed except for the following changes:
2) 3 μg NFκB-tk-p4Luc reporter DNA and 3 μg pC3-hedg1, pC3-hedg3, pC3-redg4, pC3-hedg5 or pcDNA3 DNA was diluted in 240 μl OPTI-MEM (Gibco; Cat. 31985-062)
1) 0.01×10^6 cells were plated per well of a 96-well Blackview plate coated with polyD-lysine. No cells were plated in the outside wells of the 96-well plate.

HL-60 cells = test: IL-8 ELISA on HL-60 cells; type: cell-based, human; conditions: 1, 6 or 24 hr, S1P or LPA up to 3 μM, TNF-α 10 ng/ml
Procedure: Procedure for HL-60 Cells:
Cells: HL-60 (promyelocytic, human) suspension cells
Media: RPMI 1640 medium with 2 mM L-glutamine adjusted to contain 4.5 g/L glucose, 10 mM HEPES, and 1.0 mM sodium pyruvate+10% FBS
1) Cells were plated at a density of 0.25×10^6 cells/ml.
2) Cell pellcts were resuspended in 0.5% FBS media at a density of approximately 1×10^6 cells/ml.
1) Made up all required solutions in 0.5% FBS media (control).
2) 1.4 ml appropriate treatments were added to each well of a 6-well plate.
5) 100 μl cell suspension was added to each well.
7) After the specified time cell supematants were collected into 1.5 ml eppendorf tubes, spun down at 14000 rpm for 5 minutes and stored at −20° C.
D. Refer to Procedure #1 For HeLa Cells (D).

[5] = S1P 1 μM, 30 minute pre-treatment

Sequence of rat edg4 (P47752 whole entry): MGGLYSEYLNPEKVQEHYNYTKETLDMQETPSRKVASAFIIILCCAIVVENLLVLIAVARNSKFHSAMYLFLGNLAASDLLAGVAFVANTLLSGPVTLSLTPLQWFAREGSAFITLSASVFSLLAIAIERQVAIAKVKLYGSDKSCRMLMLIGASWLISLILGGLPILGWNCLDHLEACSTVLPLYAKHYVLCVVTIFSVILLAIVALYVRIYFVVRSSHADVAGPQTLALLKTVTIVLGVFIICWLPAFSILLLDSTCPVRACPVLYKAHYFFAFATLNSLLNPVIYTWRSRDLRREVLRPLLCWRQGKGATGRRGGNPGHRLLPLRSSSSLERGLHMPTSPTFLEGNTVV

What does the source list for `CCCCCCCCCCCCC/C=C/[C@@H](O)C(N)CO[C@@H]1O[C@H](CO)[C@@H](O)[C@H](O)[C@@H]1O` (stereo partly drawn) [Glucospychosine, glucopsychosine]?
EC50 (human EDG-4): > 10 µM; Agonist character at EDG-4 (human EDG-4): poor potency and efficacy; Rank (EMax) (human EDG-4): 4; Concentration at which cytotoxicity was seen [1]: ^aCytotoxicity was seen at 10 μM or higher concentrations, preventing quantitative determination of EC50 or EMax; Cytotoxicity (qualitative) [1]: cytotoxicity at higher concentrations

Which “IL-8 response (qualitative)” value [2] does the source give for `CCCCCCCCCCCCCCCCCCOCC(COP(=O)([O-])OCC[N+](C)(C)C)OC` (stereo not drawn) [Edelfosine] here?
Its value is “no response”.

For `CC(=O)N[C@@H](CS)C(=O)O` [NAC], which “Inhibition of IL-8 response to S1P by antioxidants” value (HeLa cells [3]; [5]) is on record?
The value was “significantly inhibited”.

`CC(Cc1ccc(O)c(O)c1)C(C)Cc1ccc(O)c(O)c1` (stereo not drawn) [NDGA] was tested. Which “Relative potency of antioxidants in inhibiting IL-8 response to S1P” value (HeLa cells [3]; S1P 1 μM) did it give?
The value was “more potent than the hydrophilic NAC”.

What about the “Inhibition of IL-8 response to S1P at 40 μM” value (HeLa cells [3]; S1P 1 μM, NDGA 40 μM) of the same molecule?
The value was “completely inhibited the IL-8 response to S1P”.

What about the “Inhibition of IL-8 response to S1P by antioxidants” value (HeLa cells [3]; [5]) of the same molecule?
Its value is “significantly inhibited”.

What about the Toxicity (HeLa cells [4]) of the same molecule?
The Toxicity was “some toxicity”.

Which results are given for `Cc1ccc(C(=O)Nc2ccc(S(=O)(=O)O)c3cc(S(=O)(=O)O)cc(S(=O)(=O)O)c23)cc1NC(=O)c1cccc(NC(=O)Nc2cccc(C(=O)Nc3cc(C(=O)Nc4ccc(S(=O)(=O)O)c5cc(S(=O)(=O)O)cc(S(=O)(=O)O)c45)ccc3C)c2)c1` [Suramin]?
Inhibition of the IL-8 response to edelfosine (HeLa cells [3]; PTX 50 ng/ml or suramin 1 mg/ml): potently inhibited; Effect of suramin on IL-8 response to S1P (HeLa cells [3]; S1P 1 μM, suramin 1 mg/ml, 30 minute pre-treatment): extremely effective in blunting the IL-8 response to S1P

Which “IL-8 response (qualitative)” value [2] does the source give for `CCCCC/C=C\C/C=C\C/C=C\C/C=C\CCCC(=O)NCCO` [anandamide] here?
The value was “no response”.

Which results are given for `CCCCCCCCCCCCC/C=C/[C@@H](O)[C@@H](N)CO[C@@H]1O[C@H](CO)[C@H](O)[C@H](O)[C@H]1O` [Psychosine]?
IL-8 response (qualitative) [2]: Marginal increases; EC50 (human EDG-4): > 10 µM; Agonist character at EDG-4 (human EDG-4): poor potency and efficacy; Rank (EMax) (human EDG-4): 5; Cytotoxicity (qualitative) ([1]; higher concentrations): cytotoxicity at higher concentrations

Which results are given for `CCCCCCCCCCCCCCC[C@@H](O)[C@@H](N)COP(=O)(O)O` [Dihydro-S1P, dihydrosphingosine 1-phosphate]?
EC50 (human EDG-4): 0.53 µM; Agonist character at EDG-4 (human EDG-4): partial agonist; Max. Fold (human EDG-4; fold luciferase response, 6 hr): 2.84; Rank (EMax) (human EDG-4): 3; EMax (Percent) (human EDG-4; relative efficacy, 6 hr): 49.2%

How did the “NF-κB reporter induction (qualitative)” value (rat edg4) turn out when `CCCCCCCCCCCCCC(=O)O[C@@H]1[C@@H](C)[C@@]2(O)[C@@H](C=C(CO)C[C@]3(O)C(=O)C(C)=C[C@@H]23)[C@H]2C(C)(C)[C@]12OC(C)=O` [TPA] was run?
The value was “strongly induced the NF-κB reporter”.

Which “IL-8 production (ligand selectivity)” value (HeLa cells [3]; 6 hours, 10-5000 nM or 0.3 and 3 μM) does the source give for `CCCCCCCCCCCCC/C=C/[C@@H](O)[C@@H](N)CO` [sphingosine, Sphingosine] here?
The value was “lack of response”.

For TNF-α, which IL-8 release (HL-60 cells) is on record?
Its IL-8 release is “releasing IL-8”.
